Source: PMC12495443, “Developing inhibitors of the guanosine triphosphate hydrolysis accelerating activity of Regulator of G protein Signaling-14 [drawing 1]” (The Journal of Biological Chemistry, 2025)

Columns and labels:
[1] = biological target: T1, human RGS14 RGS-box (wild-type) (Homo sapiens, UniProt O43566); assay: Transcreener GDP RGScreen fluorescence polarization assay of RGS14 RGS-box GAP activity on Gαi1(DM); type: biochemical; conditions: for Ratio (RGS14 pIC50 / RGS12 pIC50): values > 1.0 reflect RGS14 selectivity; for IC50: read-out: RGS14 pIC50 (converted)
T1 construct: human RGS14 RGS-box (aa 46–195 of UniProt O43566); host or cells: E. coli
T1 sequence (O43566 46-195): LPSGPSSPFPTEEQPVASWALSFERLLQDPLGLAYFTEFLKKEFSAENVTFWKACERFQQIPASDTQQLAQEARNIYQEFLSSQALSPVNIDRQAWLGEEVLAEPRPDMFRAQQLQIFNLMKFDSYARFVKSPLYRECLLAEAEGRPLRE
Description: (§1) We previously described work with BellBrook Labs creating the Transcreener GDP RGScreen fluorescence polarization assay of steady-state GTP hydrolysis, leveraging a double point-mutant in the Gα enzyme to make GTP hydrolysis, rather than GDP (product) release, the rate-limiting step for multiple rounds of GTP conversion ([57], [59]). […] Titrating inputs of the double point-mutant (“DM”) Gαi1 and RGS-box recombinant proteins (Fig. S2, B and C) established a robust, medium-throughput assay for evaluating potential RGS14 and RGS12 inhibitors, with “assay quality” Z′ scores ([60]) above 0.76 for each target (Fig. S2D).
(§2) Reagents and protocols for the fluorescence anisotropy-based Transcreener GDP RGScreen assay using a rate-altered, double point-mutant, recombinant Gαi1 protein have been extensively described previously ([43], [44]); reactions were always performed so that total GTP converted over the time course was consistently less than 10% of reaction maximum input. Specific methods for its application in assessing RGS14 and RGS12 GAP activity are summarized as follows. Open-reading frames (ORFs) encoding wild-type versions of the human RGS14 RGS-box (aa 46–195 of UniProt O43566) and human RGS12 RGS-box (aa 695–843 of UniProt O14924) were each sub-cloned in-frame with an N-terminal hexahistidine (His6) expression tag in the plasmid pET30a, expressed in E. coli cultures, and then purified by nickel-nitriloacetate (Ni-NTA) and size-exclusion (Superdex 200) column chromatographies by GenScript using previously described methods ([35]). These recombinant His6-tag fusion proteins were stored at −80 °C in storage buffer (150 mM NaCl, 50 mM Tris-HCl pH 8.0, 10% glycerol) before thawing and use. Cysteine-less versions were similarly produced by ORF site-directed mutagenesis: for RGS14, codons for cysteine residues 47 and 130 (numbered as in PDB id 2JNU) were replaced with serine codons; for RGS12, codons for cysteines 4, 51, 78, and 134 (numbered in relation to PDB id 2EBZ) were replaced with serine codons. Use of Transcreener GDP-detection reagents to assess compound inhibition of Naegleria fowleri Gα7 protein GTPase activity ([83]) has previously been described ([84]).

[2] = biological target: T2, human RGS12 RGS-box (wild-type) (Homo sapiens, UniProt O14924); assay: Transcreener GDP RGScreen fluorescence polarization assay of RGS12 RGS-box GAP activity on Gαi1(DM); type: biochemical; conditions: for IC50: read-out: RGS12 pIC50 (converted)
T2 construct: human RGS12 RGS-box (aa 695–843 of UniProt O14924); host or cells: E. coli
T2 sequence (O14924 695-843): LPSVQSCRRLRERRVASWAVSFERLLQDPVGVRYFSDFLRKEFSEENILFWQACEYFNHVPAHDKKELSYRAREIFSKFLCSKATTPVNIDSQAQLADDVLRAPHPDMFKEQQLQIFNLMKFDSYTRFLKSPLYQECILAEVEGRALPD
Description: as §1, §2

THP-1 cell line = assay: Cytotoxicity assays (CytoTox-Glo, CytoTox 96); type: cell-based; conditions: THP-1 cells, overnight, CytoTox-Glo and CytoTox 96
Protocol: To evaluate cellular toxicity of active compounds, we employed the immortalized human monocytic THP1-Dual cell line (InvivoGen) in two orthogonal cytotoxicity assays: ATP-dependent luminescence (CytoTox-Glo) and colorimetric lactate dehydrogenase (LDH) release (CytoTox 96). For each assay, compounds were serially diluted 2-fold starting at 250 μM and added to 96-well flat-bottom tissue culture plates (Thermo Scientific Nunc, Cat# 165306). THP1-Dual cells were then seeded at 20,000 to 30,000 cells per well in 100 μl RPMI 1640 media supplemented with 10% fetal bovine serum (Gibco). Plates were gently mixed and incubated overnight at 37 °C in a humidified 5% CO2 incubator. For the CytoTox-Glo assay (Promega, Cat# G9291), 50 μl of assay reagent was added to each well. Plates were mixed briefly, sealed, and incubated at room temperature for 15 min before reading luminescence on a TECAN Infinite M1000 Pro plate reader to quantify dead-cell signal. Subsequently, 50 μl of a digitonin-containing lysis solution was added to each well, followed by a second luminescence read after 15 min to assess total cell content. Percent cytotoxicity was calculated per manufacturer instructions. For the CytoTox 96 Non-Radioactive Cytotoxicity Assay (Promega, Cat# G1780), after overnight compound treatment, LDH release into the culture medium was measured by adding the provided substrate mix. Absorbance was read at 490 or 492 nm within 1 h of adding the stop solution. Assay optimization and data normalization were conducted according to the manufacturer’s technical manual.

[3] = Single-dose pharmacokinetic study, plasma and brain by LC-MS/MS; type: in vivo, male Swiss-Webster mice
Protocol: Single-dose pharmacokinetic (PK) studies were conducted under IACUC-approved protocols of the UNTSCP Preclinical Services laboratory at the University of North Texas Health Science Center. Male Swiss-Webster (CFW) mice (∼30 g; Charles River) were used in both studies, housed in groups of three per cage with ad libitum access to food and water and acclimated for a minimum of 3 days prior to dosing. Each compound was evaluated in a single-dose, time-course design using three mice per time point across seven collection points (0.25, 0.5, 1, 2, 4, 8, and 24 h post-dose). For Z56944652, mice received a single intraperitoneal (IP) dose of 10 mg/kg (0.2 ml at 1.5 mg/ml). At each designated time point, mice were euthanized via CO2 inhalation, and blood was collected by cardiac puncture for plasma isolation (K2-EDTA tubes). Brains were aseptically removed, flash-frozen, and stored at −80 °C. For Z55628018, due to poor detection in preliminary studies, the protocol was modified to enhance systemic exposure. Mice were pre-dosed orally with 50 mg/kg of the pan-CYP inhibitor 1-aminobenzotriazole (ABT; ref. ([67])) 2 h prior to administration of Z55628018. The compound was then administered via IP injection at a single dose of 30 mg/kg (0.2 ml at […]). Sample collection and processing procedures were identical to those described above for Z56944652.
LC-MS/MS analyses were performed at UNTHSC using an Agilent 1260 Infinity HPLC system coupled to an Agilent 6460 Triple Quadrupole mass spectrometer equipped with Jet Stream electrospray ionization (ESI) in positive ion mode. Separation was carried out on a Poroshell 120 EC-C18 column (50 × 3.0 mm, 2.7 μm particle size) maintained at 30 °C, with a mobile phase consisting of 0.1% formic acid in water (A) and 0.1% formic acid in acetonitrile (B) under a standard gradient elution at a flow rate of 0.5 ml/min. The injection volume was 2 μl. Multiple reaction monitoring (MRM) transitions were optimized for each compound: Z56944652 was detected at m/z 353.1 → 227/132/126, and Z55628018 at m/z 391 → 134.8/247.9/132/121. The internal standard, carbamazepine, was monitored at m/z 237.2 → 167. Plasma samples (30–40 μl) were extracted with 1000 to 1200 μl of either acetonitrile or a 50:50 acetonitrile:methanol mixture containing carbamazepine (150–500 ng/ml), followed by vortexing, sonication, centrifugation, and supernatant collection for injection. Brain samples were homogenized in organic solvent (2 ml per 0.5 g tissue), vortexed, centrifuged, and processed using the same analytical workflow. Matrix-matched calibration curves were prepared using blank plasma or brain extract and validated over appropriate dynamic ranges: 0.09 to 46 μg/ml (plasma) and 0.547 to 70 ng/ml (brain) for Z56944652; 0.1 to 12.5 μg/ml (plasma) and 0.1 to 3.13 ng/ml (brain) for Z55628018. […] Retention times were 5.0 ± 0.01 min for Z56944652 and 3.3 ± 0.01 min for Z55628018, with the internal standard eluting at 4.0 ± 0.02 min.

[4] = wild-type RGS14 RGS-box GAP activity, Gαi1(DM), Transcreener GDP RGScreen
[5] = wild-type RGS12 RGS-box GAP activity, Gαi1(DM)

Row | Compound | Ratio (RGS14 pIC50 / RGS12 pIC50) [1] | IC50 [1, 4] | IC50 [2, 5] | other results
1 | O=c1[nH]c(-c2ccc(C(F)(F)F)cc2)nn1-c1cc(Cl)ccc1O [BMS-192364, reference compound] |  |  |  | inhibition of RGS14 RGS-box GAP activity (in words) ([1]; Transcreener GDP RGScreen): inactive; inhibition of RGS12 RGS-box GAP activity (in words) [2]: inactive
2 | COc1ccccc1C1=CSc2nnc(COc3ccccc3)n2N1 [Z56944652, 6-(2-methoxyphenyl)-3-(phenoxymethyl)-5H-[1,2,4]triazolo[3,4-b][1,3,4]thiadiazine] | 0.86 | 19.1 µM | 3.39 µM | cytotoxicity (THP-1 cell line): Neither triazolothiadiazine derivative was observed to induce significant cell death; time of peak brain level ([3]; 10 mg/kg IP single dose, mice): 1 h; peak brain level ([3]; 10 mg/kg IP single dose, mice, 1 h post-dose): ~20 ng/g tissue; peak CNS level (mean ± SD) ([3]; 10 mg/kg IP, three Swiss Webster mice, at 1 h): 19.5 ± 0.3 ng/gram brain tissue; Kp ([3]; male, Swiss-Webster (CFW), mouse, brain, 10 mg/kg IP, throughout the measured time course, read-out: brain-to-plasma concentration ratio (Kp)): ~1
3 | C1CC[C@H]2Sc3nnc([C@H]4CCCO4)n3N=C2C1 [Z90278035] | 0.93 | 61.7 µM | 30.2 µM | 
4 | CCN(CC)S(=O)(=O)c1cccc(-c2nnc3n2N=C(c2ccc(C)cc2)C(CC(=O)O)S3)c1 (stereo not shown) [Z90274338] | 1.14 | 93.3 µM | 288 µM | 
5 | c1ccc2c(c1)OC[C@@H](c1nnc3n1N=C(c1ccc4c(c1)OCCO4)CS3)O2 [Z55660304] | 0.90 | 28.8 µM | 8.71 µM | 
6 | O=C(O)CC1Sc2nnc(C3CC3)n2N=C1c1ccccc1 (stereo not shown) [Z90274597] | 0.92 | 302 µM | 151 µM | 
7 | O=C(O)C[C@@H]1Sc2nnc(CCC3CCCCC3)n2N=C1c1ccccc1 [Z90277285] | 0.96 | 38 µM | 24 µM | 
8 | C[C@H]1Sc2nnc(Cc3ccc(Br)cc3)n2N=C1c1ccc(NS(C)(=O)=O)cc1 [Z90276813] | 0.85 | 72.4 µM | 13.5 µM | 
9 | CCOc1ccccc1-c1nnc2n1N=C(c1ccc(NC(=O)C(C)C)cc1)[C@@H](C)S2 [Z90278674] | 0.92 | 102 µM | 44.7 µM | 

Further lines, with some results ahead:

Row | Ratio (RGS14 pIC50 / RGS12 pIC50) [1] | IC50 [1, 4] | IC50 [2, 5] | Compound | other results
10 | 0.85 | 191 µM | 42.7 µM | COc1cccc(C2=Nn3c(COc4ccc(Cl)cc4)nnc3SC2)c1 [Z55660496] | 
11 | 0.91 |  |  | O=C(O)CC1Sc2nnc(Cc3ccc(Br)cc3)n2N=C1c1ccc(Cl)cc1 (stereo not shown) [Z90276771] | RGS14 pIC50 [1, 4]: 4.53; RGS12 pIC50 [2, 5]: 4.96
12 | 0.91 | 75.9 µM | 29.5 µM | COc1ccc(Cc2nnc3n2N=C(c2ccc(C)c(C)c2)[C@@H](C)S3)cc1OC [Z55660805] | 
13 | 0.82 | 170 µM | 26.9 µM | Cc1ccc(C2=Nn3c(COc4ccc(Cl)cc4)nnc3SC2)c(C)c1 [Z55660524] | 
14 | 1.14 | 27.5 µM | 100 µM | COC(=O)C1Sc2nnc(COc3ccc(OC)cc3)n2N=C1c1cccc(N2CCCC2=O)c1 (stereo not shown) [Z7976707565] | 
15 | 0.86 | 20.4 µM | 3.63 µM | COc1ccc(OCc2nnc3n2N=C(c2ccc(C)cc2)[C@@H](C)S3)cc1 [Z55660052] | 
